# Test results: article PMC12444472, “BCI inhibits MKP3 by targeting the kinase-binding domain and disrupting ERK2 interaction” (The Journal of Biological Chemistry, 2025)
# Residue numbers refer to the chain shown, from its start. Several values for one entry are separate records, joined by “and”; a condition that tells them apart may be missing. Identical values can stand only once.
# Assays:
# MKP3^KBD = target: T1, MKP3^KBD (Homo sapiens, UniProt Q16828); test: MST affinity measurement; details: one-site binding model, mean ± SD of three experiments
# T1 construct: MKP3(1–154) (MKP3^KBD); made in house; host or cells: Escherichia coli BL21(DE3)
# T1 sequence (Q16828 1-154): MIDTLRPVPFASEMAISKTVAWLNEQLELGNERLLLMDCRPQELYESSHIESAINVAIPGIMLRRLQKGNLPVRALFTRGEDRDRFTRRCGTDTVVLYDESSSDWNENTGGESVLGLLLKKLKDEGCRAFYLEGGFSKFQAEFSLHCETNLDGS
# Description: (§1) MST measurements were performed using fluorescently labeled proteins and the inhibitor BCI (CAS: 1245792-51-1; TargetMol) on a Monolith instrument (NanoTemper Technologies). The RED–Tris–NTA second-generation dye was dissolved in MST buffer (20 mM Hepes, pH 7.4, 200 mM NaCl, and 0.05% Tween-20) to prepare a 5 μM stock solution. Fluorescent labeling of MKP proteins followed the standard protocol of the MO-L018 RED–Tris–NTA protein labeling kit, leveraging the His-tag–dye interaction.
# (§2) The BCI compound was prepared as a 600 to 750 μM stock solution in MST buffer with 10% DMSO to enhance solubility, followed by a 16-point serial dilution. The diluted BCI solutions were thoroughly mixed with labeled MKP proteins (50 nM) at a 1:1 volume ratio, yielding a final volume of 10 μl. The reaction mixtures were incubated in the dark for 10 min at room temperature before being loaded into standard glass capillaries. Measurements were carried out on the Monolith instrument (100% LED, 40% IR laser power) with a 20 s laser on time. The normalized fluorescence values from triplicate measurements were averaged at each concentration and fitted to a 1:1 binding model using the KD model in MO.Affinity software (v3.0.5, NanoTemper Technologies) to determine the binding affinities between MKP proteins and the BCI inhibitor. The final reported Kd value represents the mean ± SD of Kd values obtained from three independent experiments, each fitted separately.
# MKP5^KBD = target: T2, MKP5^KBD (Homo sapiens, UniProt Q9Y6W6); test: MST affinity measurement; details: one-site binding model, mean ± SD of three experiments
# T2 construct: MKP5(139–287) (MKP5^KBD); made in house; host or cells: Escherichia coli BL21(DE3)
# T2 sequence (Q9Y6W6 139-287): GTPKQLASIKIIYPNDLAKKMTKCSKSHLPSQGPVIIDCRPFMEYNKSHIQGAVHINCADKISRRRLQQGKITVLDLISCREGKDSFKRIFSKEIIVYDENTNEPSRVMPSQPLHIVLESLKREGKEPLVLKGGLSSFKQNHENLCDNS
# Description: as §1, §2
# MKP3^FL = target: T3, MKP3^FL (Homo sapiens, UniProt Q16828); test: MST affinity measurement; details: one-site binding model, mean ± SD of three experiments
# T3 construct: MKP3(1–381) (MKP3^FL); made in house; host or cells: Escherichia coli BL21(DE3)
# T3 sequence (Q16828 1-381): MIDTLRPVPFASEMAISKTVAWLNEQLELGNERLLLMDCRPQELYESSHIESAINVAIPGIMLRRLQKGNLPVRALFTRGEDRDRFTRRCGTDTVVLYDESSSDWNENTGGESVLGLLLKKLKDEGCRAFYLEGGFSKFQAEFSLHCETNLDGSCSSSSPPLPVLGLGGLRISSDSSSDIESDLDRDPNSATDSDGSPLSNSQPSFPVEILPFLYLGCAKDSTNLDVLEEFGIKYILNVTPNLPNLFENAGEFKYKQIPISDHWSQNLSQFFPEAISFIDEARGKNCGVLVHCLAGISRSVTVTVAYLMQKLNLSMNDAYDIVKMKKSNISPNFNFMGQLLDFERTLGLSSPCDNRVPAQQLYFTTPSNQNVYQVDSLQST
# Description: as §1, §2
# MKP3 T87G = target: T4, MKP3 T87G (Homo sapiens, UniProt Q16828, T87G); test: MST affinity of MKP3 mutant; type: binding; details: full-length mutant
# T4 construct: MKP3(1–381) (MKP3^FL); made in house; host or cells: Escherichia coli BL21(DE3)
# T4 sequence (Q16828 1-381 T87G): T3 sequence (Q16828 1-381) with T87G
# Description: as §1, §2
# (§3) Figure S3. Affinity measurements of MKP3 mutants with BCI by MST. The binding affinities of full-length MKP3 mutants (E81G, R83G, R85G, R87G, and R89A) to BCI were determined by MST and are presented as mean ± SD (n = 3). Wild-type MKP3 (MKP3^WT) was included as a reference.
# MKP3 R85G = target: T5, MKP3 R85G (Homo sapiens, UniProt Q16828, R85G); test: MST affinity of MKP3 mutant; type: binding; details: full-length mutant
# T5 construct: MKP3(1–381) (MKP3^FL); made in house; host or cells: Escherichia coli BL21(DE3)
# T5 sequence (Q16828 1-381 R85G): T3 sequence (Q16828 1-381) with R85G
# Description: as §1, §2, §3
# MKP3 R83G = target: T6, MKP3 R83G (Homo sapiens, UniProt Q16828, R83G); test: MST affinity of MKP3 mutant; type: binding; details: full-length mutant
# T6 construct: MKP3(1–381) (MKP3^FL); made in house; host or cells: Escherichia coli BL21(DE3)
# T6 sequence (Q16828 1-381 R83G): T3 sequence (Q16828 1-381) with R83G
# Description: as §1, §2, §3
smiles,measurement,setting,value
"O=C1/C(=C/c2ccccc2)C(NC2CCCCC2)c2ccccc21 (stereo not drawn) [BCI, (E)-2-benzylidene-3-(cyclohexylamino)-2,3-dihydro-1H-inden-1-one]",Kd,MKP3^KBD,15 µM and ~15 µM
same,Kd,MKP5^KBD,~8.5 µM and 8.5 µM
same,Kd,MKP3^FL,9.2 ± 1.8 µM
same,affinity for BCI compared with MKP3^WT,MKP3 T87G,affinities similar to the WT
same,affinity for BCI compared with MKP3^WT,MKP3 R85G,affinities similar to the WT
same,affinity for BCI compared with MKP3^WT,MKP3 R83G,significantly reduced affinity
